Results published in ChEMBL document CHEMBL6087462, “Cuminaldehyde Potentiates Antiproteolytic Peptide Efficacy via Parallel Pathways of Enhanced Inner Membrane-Damaging Activity and Inhibition of Bacterial Energy Metabolism” (J Med Chem, 2025).

How the values were obtained:
Escherichia coli [1] = experiment: Synergistic antimicrobial activity against Escherichia coli UB1005 assessed as fractional inhibitory concentration index in presence of cuminaldehyde by checkerboard broth microdilution assay; type: functional
Escherichia coli [2] = experiment: Synergistic antimicrobial activity against Escherichia coli UB1005 assessed as fractional inhibitory concentration index in presence of citral by checkerboard broth microdilution assay; type: functional
Escherichia coli [3] = experiment: Synergistic antimicrobial activity against Escherichia coli UB1005 assessed as fractional inhibitory concentration index in presence of thymol by checkerboard broth microdilution assay; type: functional
Escherichia coli [4] = experiment: Synergistic antimicrobial activity against Escherichia coli K88 assessed as fractional inhibitory concentration index in presence of cuminaldehyde by checkerboard broth microdilution assay; type: functional
Escherichia coli [5] = experiment: Synergistic antimicrobial activity against Escherichia coli K88 assessed as fractional inhibitory concentration index in presence of thymol by checkerboard broth microdilution assay; type: functional
Escherichia coli [6] = experiment: Synergistic antimicrobial activity against Escherichia coli K88 assessed as fractional inhibitory concentration index in presence of carvacrol by checkerboard broth microdilution assay; type: functional
Escherichia coli [7] = experiment: Synergistic antimicrobial activity against Escherichia coli K99 assessed as fractional inhibitory concentration index in presence of perillaldehyde by checkerboard broth microdilution assay; type: functional
Escherichia coli [8] = experiment: Synergistic antimicrobial activity against Escherichia coli 078 assessed as fractional inhibitory concentration index in presence of citronellal by checkerboard broth microdilution assay; type: functional, 78
Escherichia coli [9] = experiment: Synergistic antimicrobial activity against Escherichia coli 078 assessed as fractional inhibitory concentration index in presence of thymol by checkerboard broth microdilution assay; type: functional, 78
Salmonella typhimurium [10] = experiment: Synergistic antimicrobial activity against Salmonella typhimurium 14028 assessed as fractional inhibitory concentration index in presence of cuminaldehyde by checkerboard broth microdilution assay; type: functional, Salmonella enterica subsp. enterica serovar Typhimurium
Salmonella typhimurium [11] = experiment: Synergistic antimicrobial activity against Salmonella typhimurium 14028 assessed as fractional inhibitory concentration index in presence of citral by checkerboard broth microdilution assay; type: functional, Salmonella enterica subsp. enterica serovar Typhimurium
Salmonella typhimurium [12] = experiment: Synergistic antimicrobial activity against Salmonella typhimurium 14028 assessed as fractional inhibitory concentration index in presence of thymol by checkerboard broth microdilution assay; type: functional, Salmonella enterica subsp. enterica serovar Typhimurium
Salmonella typhimurium [13] = experiment: Synergistic antimicrobial activity against Salmonella typhimurium 7731 assessed as fractional inhibitory concentration index in presence of citronellal by checkerboard broth microdilution assay; type: functional, Salmonella enterica subsp. enterica serovar Typhimurium
Salmonella typhimurium [14] = experiment: Synergistic antimicrobial activity against Salmonella typhimurium 7731 assessed as fractional inhibitory concentration index in presence of thymol by checkerboard broth microdilution assay; type: functional, Salmonella enterica subsp. enterica serovar Typhimurium
[15] = Synergistic antimicrobial activity against Salmonella enterica subsp. enterica serovar Pullorum 7913 assessed as fractional inhibitory concentration index in presence of cuminaldehyde by checkerboard broth microdilution assay; type: functional
[16] = Synergistic antimicrobial activity against Salmonella enterica subsp. enterica serovar Pullorum 7913 assessed as fractional inhibitory concentration index in presence of thymol by checkerboard broth microdilution assay; type: functional
Pseudomonas aeruginosa [17] = experiment: Synergistic antimicrobial activity against Pseudomonas aeruginosa 27853 assessed as fractional inhibitory concentration index in presence of citronellal by checkerboard broth microdilution assay; type: functional
Staphylococcus aureus [18] = experiment: Synergistic antimicrobial activity against Staphylococcus aureus 25923 assessed as fractional inhibitory concentration index in presence of carvacrol by checkerboard broth microdilution assay; type: functional
Staphylococcus aureus [19] = experiment: Synergistic antimicrobial activity against Staphylococcus aureus 29213 assessed as fractional inhibitory concentration index in presence of citronellal by checkerboard broth microdilution assay; type: functional
Staphylococcus aureus [20] = experiment: Synergistic antimicrobial activity against Staphylococcus aureus 29213 assessed as fractional inhibitory concentration index in presence of perillaldehyde by checkerboard broth microdilution assay; type: functional
Staphylococcus aureus [21] = experiment: Synergistic antimicrobial activity against Staphylococcus aureus 29213 assessed as fractional inhibitory concentration index in presence of carvacrol by checkerboard broth microdilution assay; type: functional
Staphylococcus aureus [22] = experiment: Synergistic antimicrobial activity against Staphylococcus aureus 43300 assessed as fractional inhibitory concentration index in presence of citronellal by checkerboard broth microdilution assay; type: functional
Staphylococcus aureus [23] = experiment: Synergistic antimicrobial activity against Staphylococcus aureus 43300 assessed as fractional inhibitory concentration index in presence of carvacrol by checkerboard broth microdilution assay; type: functional
Enterococcus faecalis [24] = experiment: Synergistic antimicrobial activity against Enterococcus faecalis 29212 assessed as fractional inhibitory concentration index in presence of citronellal by checkerboard broth microdilution assay; type: functional
Enterococcus faecalis [25] = experiment: Synergistic antimicrobial activity against Enterococcus faecalis 29212 assessed as fractional inhibitory concentration index in presence of citral by checkerboard broth microdilution assay; type: functional
Escherichia coli [26] = experiment: Antimicrobial activity against Escherichia coli UB 1005 assessed as reduction in microbial growth by CLSI based broth microdilution method; type: functional
Escherichia coli [27] = experiment: Antimicrobial activity against Escherichia coli K99 assessed as reduction in microbial growth by CLSI based broth microdilution method; type: functional
Salmonella typhimurium [28] = experiment: Antimicrobial activity against Salmonella typhimurium ATCC 7731 assessed as reduction in microbial growth by CLSI based broth microdilution method; type: functional, Salmonella enterica subsp. enterica serovar Typhimurium; details: Salmonella enterica
Pseudomonas aeruginosa [29] = experiment: Antimicrobial activity against Pseudomonas aeruginosa ATCC 27853 assessed as reduction in microbial growth by CLSI based broth microdilution method; type: functional
Staphylococcus aureus [30] = experiment: Antimicrobial activity against Staphylococcus aureus ATCC 25923 assessed as reduction in microbial growth by CLSI based broth microdilution method; type: functional
Escherichia coli [31] = experiment: Synergistic antimicrobial activity against Escherichia coli ATCC 25922 assessed as fractional inhibitory concentration by checkerboard broth microdilution assay; type: functional
Escherichia coli [32] = experiment: Synergistic antimicrobial activity against Escherichia coli UB 1005 assessed as fractional inhibitory concentration by checkerboard broth microdilution assay; type: functional
Escherichia coli [33] = experiment: Synergistic antimicrobial activity against Escherichia coli K88 assessed as fractional inhibitory concentration by checkerboard broth microdilution assay; type: functional
Escherichia coli [34] = experiment: Synergistic antimicrobial activity against Escherichia coli 078 assessed as fractional inhibitory concentration by checkerboard broth microdilution assay; type: functional
Staphylococcus aureus [35] = experiment: Synergistic antimicrobial activity against Staphylococcus aureus ATCC 25923 assessed as fractional inhibitory concentration by checkerboard broth microdilution assay; type: functional
Enterococcus faecalis [36] = experiment: Synergistic antimicrobial activity against Enterococcus faecalis ATCC 29212 assessed as fractional inhibitory concentration by checkerboard broth microdilution assay; type: functional
Escherichia coli [37] = experiment: Antimicrobial activity against Escherichia coli UB 1005 assessed as reduction in microbial growth in presence of cuminaldehyde by CLSI based broth microdilution method; type: functional
Escherichia coli [38] = experiment: Antimicrobial activity against Escherichia coli K99 assessed as reduction in microbial growth in presence of cuminaldehyde by CLSI based broth microdilution method; type: functional
Escherichia coli [39] = experiment: Antimicrobial activity against Escherichia coli 078 assessed as reduction in microbial growth in presence of cuminaldehyde by CLSI based broth microdilution method; type: functional; details: 78
Staphylococcus aureus [40] = experiment: Antimicrobial activity against Staphylococcus aureus ATCC 29213 assessed as reduction in microbial growth in presence of cuminaldehyde by CLSI based broth microdilution method; type: functional
[41] = tested on: Staphylococcus epidermidis; experiment: Antimicrobial activity against Staphylococcus epidermidis ATCC 12228 assessed as reduction in microbial growth in presence of cuminaldehyde by CLSI based broth microdilution method; type: functional
Enterococcus faecalis [42] = experiment: Antimicrobial activity against Enterococcus faecalis ATCC 29212 assessed as cuminaldehyde MIC by CLSI based broth microdilution method; type: functional
Escherichia coli [43] = experiment: Drug resistance, ratio of MIC for Escherichia coli ATCC 25922 after 30 passages to MIC for Escherichia coli ATCC 25922 […] after initial exposure; type: functional

For `CC[C@H](C)[C@H](NC(=O)[C@@H](NC(=O)[C@@H](CCCNC(=N)N)NC(=O)[C@H](C)NC(=O)[C@H](C)NC(=O)[C@@H](N)Cc1cccc2ccccc12)[C@@H](C)CC)C(=O)N[C@@H](CC(C)C)C(=O)N[C@H](CCCNC(=N)N)C(=O)N[C@@H](Cc1c[nH]c2ccccc12)C(=O)N[C@H](CCCNC(=N)N)C(=O)N[C@@H](Cc1ccccc1)C(=O)N[C@@H](CCCNC(=N)N)C(=O)O`, the “fractional inhibitory concentration index (FICI)” value (Escherichia coli [1]) was 0.188, the “fractional inhibitory concentration index (FICI)” value (Escherichia coli [2]) was 0.257 and the “fractional inhibitory concentration index (FICI)” value (Escherichia coli [3]) was 0.25. For the same molecule, the “fractional inhibitory concentration index (FICI)” value (Escherichia coli [4]) was 0.125, the “fractional inhibitory concentration index (FICI)” value (Escherichia coli [5]) was 0.313 and the “fractional inhibitory concentration index (FICI)” value (Escherichia coli [6]) was 0.313. For the same molecule, the “fractional inhibitory concentration index (FICI)” value (Escherichia coli [7]) was 0.375, the “fractional inhibitory concentration index (FICI)” value (Escherichia coli [8]) was 0.156 and the “fractional inhibitory concentration index (FICI)” value (Escherichia coli [9]) was 0.5. For the same molecule, the “fractional inhibitory concentration index (FICI)” value (Salmonella typhimurium [10]) was 0.25, the “fractional inhibitory concentration index (FICI)” value (Salmonella typhimurium [11]) was 0.141 and the “fractional inhibitory concentration index (FICI)” value (Salmonella typhimurium [12]) was 0.313. The “fractional inhibitory concentration index (FICI)” value (Salmonella typhimurium [13]) was 0.254, the “fractional inhibitory concentration index (FICI)” value (Salmonella typhimurium [14]) was 0.313 and the “fractional inhibitory concentration index (FICI)” value [15] was 0.125. For the same molecule, the “fractional inhibitory concentration index (FICI)” value [16] was 0.75, the “fractional inhibitory concentration index (FICI)” value (Pseudomonas aeruginosa [17]) was 0.254 and the “fractional inhibitory concentration index (FICI)” value (Staphylococcus aureus [18]) was 0.375. For the same molecule, the “fractional inhibitory concentration index (FICI)” value (Staphylococcus aureus [19]) was 0.94, the “fractional inhibitory concentration index (FICI)” value (Staphylococcus aureus [20]) was 0.25 and the “fractional inhibitory concentration index (FICI)” value (Staphylococcus aureus [21]) was 0.313. The “fractional inhibitory concentration index (FICI)” value (Staphylococcus aureus [22]) was 0.188, the “fractional inhibitory concentration index (FICI)” value (Staphylococcus aureus [23]) was 0.75 and the “fractional inhibitory concentration index (FICI)” value (Enterococcus faecalis [24]) was 0.375. For the same molecule, the “fractional inhibitory concentration index (FICI)” value (Enterococcus faecalis [25]) was 0.375, the MIC (Escherichia coli [26]) was 16 µg/mL and the MIC (Escherichia coli [27]) was 8 µg/mL. For the same molecule, the MIC (Salmonella typhimurium [28]) was 8 µg/mL, the MIC (Pseudomonas aeruginosa [29]) was 32 µg/mL and the MIC (Staphylococcus aureus [30]) was 16 µg/mL. For the same molecule, the FIC (Escherichia coli [31]) was 0.125, the FIC (Escherichia coli [32]) was 0.125 and the FIC (Escherichia coli [33]) was 0.063. The FIC (Escherichia coli [34]) was 0.063, the FIC (Staphylococcus aureus [35]) was 0.063 and the FIC (Enterococcus faecalis [36]) was 0.125. For the same molecule, the MIC (Escherichia coli [37]) was 0.5 µg/mL, the MIC (Escherichia coli [38]) was 0.25 µg/mL and the MIC (Escherichia coli [39]) was 2 µg/mL. It also gave an MIC (Staphylococcus aureus [40]) of 2 µg/mL, an MIC [41] of 4 µg/mL and an MIC (Enterococcus faecalis [42]) of 512 µg/mL. For the same molecule, the Ratio (Escherichia coli [43]) was 2.
